Measured values taken from the NIST ThermoML archive (doi:10.1021/acs.jced.8b00132).
“And” between values parts separate entries of the source, which are not always exact repeats. Equal entries are not always repeated.

Details: Gas

O=C(C(F)(F)C(F)(F)F)C(F)(C(F)(F)F)C(F)(F)F [dodecafluoro-2-methylpentan-3-one]
Details | thermal conductivity
499.7 K, 3616 kPa, transient hot wire | 0.03337 W/m/K
499.7 K, 4324 kPa, transient hot wire | 0.03528 W/m/K
499.7 K, 5590 kPa, transient hot wire | 0.03721 W/m/K
499.7 K, 35697 kPa, transient hot wire | 0.05683 W/m/K
499.7 K, 50253 kPa, transient hot wire | 0.06228 W/m/K
499.7 K, 50292 kPa, transient hot wire | 0.06274 W/m/K
499.71 K, 3616 kPa, transient hot wire | 0.03339 W/m/K
499.71 K, 25604 kPa, transient hot wire | 0.05236 W/m/K
499.72 K, 3288 kPa, transient hot wire | 0.03208 W/m/K
499.72 K, 4324 kPa, transient hot wire | 0.03516 W/m/K
499.72 K, 18413 kPa, transient hot wire | 0.04809 W/m/K
499.73 K, 643 kPa, hot wire | 0.02734 W/m/K and 0.02744 W/m/K
499.73 K, 4855 kPa, transient hot wire | 0.03606 W/m/K and 0.03623 W/m/K
499.73 K, 18416 kPa, transient hot wire | 0.04833 W/m/K
499.73 K, 35665 kPa, transient hot wire | 0.05687 W/m/K
499.74 K, 3288 kPa, transient hot wire | 0.03222 W/m/K
499.74 K, 3937 kPa, transient hot wire | 0.03429 W/m/K
499.74 K, 50254 kPa, transient hot wire | 0.06235 W/m/K
499.75 K, 418 kPa, hot wire | 0.02717 W/m/K
499.75 K, 2128 kPa, transient hot wire | 0.02829 W/m/K
499.75 K, 35673 kPa, transient hot wire | 0.05679 W/m/K
499.75 K, 35689 kPa, transient hot wire | 0.05686 W/m/K
499.75 K, 50278 kPa, transient hot wire | 0.06281 W/m/K
499.76 K, 417 kPa, hot wire | 0.02687 W/m/K
499.76 K, 1595 kPa, transient hot wire | 0.02727 W/m/K
499.76 K, 5594 kPa, transient hot wire | 0.03739 W/m/K
499.76 K, 25601 kPa, transient hot wire | 0.05218 W/m/K
499.76 K, 25602 kPa, transient hot wire | 0.05226 W/m/K
499.76 K, 50255 kPa, transient hot wire | 0.06232 W/m/K
499.77 K, 1595 kPa, transient hot wire | 0.0273 W/m/K
499.77 K, 4324 kPa, transient hot wire | 0.03524 W/m/K
499.78 K, 5592 kPa, transient hot wire | 0.03734 W/m/K
499.79 K, 60 kPa, hot wire | 0.02624 W/m/K
499.79 K, 218 kPa, hot wire | 0.02627 W/m/K
499.79 K, 2953 kPa, transient hot wire | 0.03092 W/m/K
499.79 K, 3618 kPa, transient hot wire | 0.03355 W/m/K
499.79 K, 4324 kPa, transient hot wire | 0.03534 W/m/K
499.79 K, 35664 kPa, transient hot wire | 0.05692 W/m/K
499.79 K, 50251 kPa, transient hot wire | 0.06211 W/m/K
499.8 K, 60 kPa, hot wire | 0.02618 W/m/K
499.8 K, 217 kPa, hot wire | 0.02613 W/m/K
499.8 K, 869 kPa, transient hot wire | 0.02693 W/m/K and 0.02695 W/m/K
499.8 K, 2952 kPa, transient hot wire | 0.03103 W/m/K
499.8 K, 3936 kPa, transient hot wire | 0.03437 W/m/K
499.8 K, 4855 kPa, transient hot wire | 0.03629 W/m/K
499.81 K, 2569 kPa, transient hot wire | 0.0294 W/m/K
499.81 K, 3287 kPa, transient hot wire | 0.0325 W/m/K and 0.03233 W/m/K
499.81 K, 3936 kPa, transient hot wire | 0.03445 W/m/K
499.81 K, 35680 kPa, transient hot wire | 0.05678 W/m/K
499.81 K, 35689 kPa, transient hot wire | 0.05675 W/m/K
499.81 K, 50253 kPa, transient hot wire | 0.06239 W/m/K
499.82 K, 2568 kPa, transient hot wire | 0.02959 W/m/K
499.82 K, 35681 kPa, transient hot wire | 0.05686 W/m/K
499.83 K, 646 kPa, transient hot wire | 0.02724 W/m/K
499.83 K, 647 kPa, transient hot wire | 0.02739 W/m/K
499.83 K, 13400 kPa, transient hot wire | 0.04508 W/m/K
499.84 K, 5595 kPa, transient hot wire | 0.03734 W/m/K
499.84 K, 13403 kPa, transient hot wire | 0.04494 W/m/K
499.84 K, 18418 kPa, transient hot wire | 0.04825 W/m/K
499.85 K, 3618 kPa, transient hot wire | 0.0337 W/m/K
499.85 K, 4324 kPa, transient hot wire | 0.03554 W/m/K
499.85 K, 25604 kPa, transient hot wire | 0.05216 W/m/K
499.85 K, 35654 kPa, transient hot wire | 0.05672 W/m/K
499.86 K, 4325 kPa, transient hot wire | 0.03565 W/m/K
499.87 K, 5595 kPa, transient hot wire | 0.03732 W/m/K
499.87 K, 35670 kPa, transient hot wire | 0.05702 W/m/K
499.88 K, 1594 kPa, transient hot wire | 0.02746 W/m/K
499.88 K, 1595 kPa, transient hot wire | 0.02725 W/m/K
499.88 K, 2128 kPa, transient hot wire | 0.02824 W/m/K
499.88 K, 2952 kPa, transient hot wire | 0.03099 W/m/K
499.88 K, 3619 kPa, transient hot wire | 0.03371 W/m/K
499.88 K, 3936 kPa, transient hot wire | 0.03462 W/m/K
499.89 K, 422 kPa, transient hot wire | 0.02757 W/m/K
499.89 K, 2128 kPa, transient hot wire | 0.02826 W/m/K
499.89 K, 2952 kPa, transient hot wire | 0.03116 W/m/K
499.89 K, 3936 kPa, transient hot wire | 0.03474 W/m/K
499.89 K, 35669 kPa, transient hot wire | 0.05673 W/m/K
499.9 K, 421 kPa, transient hot wire | 0.02748 W/m/K
499.91 K, 2567 kPa, transient hot wire | 0.02946 W/m/K
499.91 K, 3287 kPa, transient hot wire | 0.03278 W/m/K
499.91 K, 10172 kPa, transient hot wire | 0.0425 W/m/K
499.91 K, 25600 kPa, transient hot wire | 0.05221 W/m/K
499.92 K, 6555 kPa, transient hot wire | 0.03863 W/m/K
499.92 K, 10173 kPa, transient hot wire | 0.0424 W/m/K
499.92 K, 25604 kPa, transient hot wire | 0.05225 W/m/K
499.93 K, 870 kPa, transient hot wire | 0.02694 W/m/K
499.93 K, 6552 kPa, transient hot wire | 0.0387 W/m/K
499.93 K, 13400 kPa, transient hot wire | 0.04487 W/m/K
499.93 K, 18421 kPa, transient hot wire | 0.04818 W/m/K
499.94 K, 869 kPa, transient hot wire | 0.0272 W/m/K
499.94 K, 18421 kPa, transient hot wire | 0.0482 W/m/K
499.95 K, 5597 kPa, transient hot wire | 0.03741 W/m/K
499.96 K, 2952 kPa, transient hot wire | 0.03132 W/m/K
499.96 K, 3620 kPa, transient hot wire | 0.0341 W/m/K
499.97 K, 25600 kPa, transient hot wire | 0.05221 W/m/K
499.97 K, 25604 kPa, transient hot wire | 0.05228 W/m/K
499.98 K, 645 kPa, transient hot wire | 0.02717 W/m/K
499.99 K, 10173 kPa, transient hot wire | 0.04254 W/m/K
499.99 K, 13400 kPa, transient hot wire | 0.04504 W/m/K
499.99 K, 13402 kPa, transient hot wire | 0.04506 W/m/K
499.99 K, 18421 kPa, transient hot wire | 0.04841 W/m/K
500 K, 646 kPa, transient hot wire | 0.02728 W/m/K
500 K, 2952 kPa, transient hot wire | 0.03119 W/m/K
500 K, 3286 kPa, transient hot wire | 0.03306 W/m/K and 0.03284 W/m/K
500 K, 6554 kPa, transient hot wire | 0.03863 W/m/K
500 K, 6555 kPa, transient hot wire | 0.03872 W/m/K
500 K, 8108 kPa, transient hot wire | 0.04046 W/m/K
500 K, 10172 kPa, transient hot wire | 0.04249 W/m/K
500.01 K, 1594 kPa, transient hot wire | 0.02714 W/m/K
500.01 K, 2129 kPa, transient hot wire | 0.02838 W/m/K
500.02 K, 1594 kPa, transient hot wire | 0.02737 W/m/K
500.02 K, 2129 kPa, transient hot wire | 0.0285 W/m/K
500.02 K, 2565 kPa, transient hot wire | 0.02947 W/m/K
500.02 K, 2566 kPa, transient hot wire | 0.0295 W/m/K
500.02 K, 8108 kPa, transient hot wire | 0.04041 W/m/K
500.02 K, 18425 kPa, transient hot wire | 0.0483 W/m/K
500.05 K, 419 kPa, transient hot wire | 0.02753 W/m/K
500.06 K, 419 kPa, transient hot wire | 0.02752 W/m/K
500.07 K, 10171 kPa, transient hot wire | 0.04243 W/m/K
500.08 K, 870 kPa, transient hot wire | 0.02705 W/m/K and 0.02701 W/m/K
500.08 K, 6554 kPa, transient hot wire | 0.03889 W/m/K and 0.03865 W/m/K
500.08 K, 8107 kPa, transient hot wire | 0.04045 W/m/K
500.08 K, 18421 kPa, transient hot wire | 0.04829 W/m/K
500.09 K, 2952 kPa, transient hot wire | 0.03151 W/m/K
500.1 K, 2952 kPa, transient hot wire | 0.03143 W/m/K
500.1 K, 8107 kPa, transient hot wire | 0.04058 W/m/K
500.1 K, 13402 kPa, transient hot wire | 0.04498 W/m/K
500.12 K, 644 kPa, transient hot wire | 0.02715 W/m/K
500.13 K, 645 kPa, transient hot wire | 0.02741 W/m/K
500.13 K, 1594 kPa, transient hot wire | 0.02735 W/m/K
500.14 K, 2565 kPa, transient hot wire | 0.0296 W/m/K
500.15 K, 1594 kPa, transient hot wire | 0.02739 W/m/K
500.15 K, 10171 kPa, transient hot wire | 0.04243 W/m/K
500.16 K, 419 kPa, transient hot wire | 0.02764 W/m/K
500.16 K, 10174 kPa, transient hot wire | 0.04246 W/m/K
500.16 K, 13402 kPa, transient hot wire | 0.04495 W/m/K
500.17 K, 6553 kPa, transient hot wire | 0.03885 W/m/K
500.17 K, 8107 kPa, transient hot wire | 0.04052 W/m/K
500.17 K, 8287 kPa, transient hot wire | 0.04057 W/m/K
500.17 K, 13401 kPa, transient hot wire | 0.04512 W/m/K
500.18 K, 6551 kPa, transient hot wire | 0.03865 W/m/K
500.18 K, 8108 kPa, transient hot wire | 0.04052 W/m/K
500.18 K, 8283 kPa, transient hot wire | 0.0406 W/m/K
500.2 K, 419 kPa, transient hot wire | 0.02743 W/m/K
500.23 K, 871 kPa, transient hot wire | 0.02696 W/m/K
500.24 K, 872 kPa, transient hot wire | 0.02702 W/m/K
500.24 K, 2563 kPa, transient hot wire | 0.02975 W/m/K and 0.02983 W/m/K
500.25 K, 6550 kPa, transient hot wire | 0.0387 W/m/K
500.25 K, 10172 kPa, transient hot wire | 0.04247 W/m/K
500.26 K, 6550 kPa, transient hot wire | 0.0388 W/m/K
500.27 K, 8107 kPa, transient hot wire | 0.04068 W/m/K and 0.04066 W/m/K
500.27 K, 8290 kPa, transient hot wire | 0.04063 W/m/K
500.27 K, 8294 kPa, transient hot wire | 0.04069 W/m/K
500.28 K, 643 kPa, transient hot wire | 0.02732 W/m/K and 0.02714 W/m/K
500.33 K, 419 kPa, transient hot wire | 0.02775 W/m/K
500.34 K, 418 kPa, transient hot wire | 0.02786 W/m/K
500.35 K, 8106 kPa, transient hot wire | 0.0405 W/m/K
500.36 K, 8300 kPa, transient hot wire | 0.04074 W/m/K
500.37 K, 8107 kPa, transient hot wire | 0.04059 W/m/K
500.4 K, 872 kPa, transient hot wire | 0.02701 W/m/K
500.4 K, 874 kPa, transient hot wire | 0.02698 W/m/K
500.43 K, 643 kPa, transient hot wire | 0.02726 W/m/K
500.45 K, 643 kPa, transient hot wire | 0.0272 W/m/K
500.46 K, 8304 kPa, transient hot wire | 0.04072 W/m/K
500.46 K, 8307 kPa, transient hot wire | 0.04066 W/m/K
500.48 K, 417 kPa, transient hot wire | 0.02764 W/m/K
500.49 K, 417 kPa, transient hot wire | 0.02771 W/m/K
500.58 K, 8309 kPa, transient hot wire | 0.04075 W/m/K
